Several values for one entry are separate records, joined by “and”; a condition that tells them apart may be missing. Equal entries are not always repeated. Entries after “also recorded” stand apart in the source; their conditions may differ. Where two headings read alike, the source gives them in different places.
What was measured:
[1] = system: 22Rv1 cells; experiment: Trypan blue treatment of single 22Rv1 cell (cell viability); format: cell-based, human
Description: This dye was used to check if the cell membrane was compromised after the exposure to the various conditions, as a measure of cell viability.

[2] = system: WBC; experiment: Single-cell DNR accumulation in white blood cell (WBC); format: cell-based, mouse; details: 35 μM DNR alone, FIG. 12c
Procedure: (§1) The procedure for drug accumulation measurement has previously been reported.^45-47 Briefly, the anti-cancer drug (i.e., DNR or OG-PTX) was introduced via Reservoir D and drug accumulation of the anti-cancer drug was measured in the single cell. […] DNR was first used for drug accumulation measurement as it had inherent fluorescence (λex=470 nm; λem=585 nm). Thereafter, paclitaxel that was fluorescently labelled by Oregon Green was examined (λex=492 nm; λem=524 nm), since paclitaxel was the commonly-used anti-cancer drug for prostate cancer treatment.
On the other hand, in a similar experiment conducted on the WBC (FIG. 12c), the cell was not stained by the anti-Pgp antibody, indicating it is not a PCa cell.

[3] = system: 22Rv1 cells; experiment: Effect of MDR inhibitors on DNR accumulation in single 22Rv1 cell; format: cell-based, human
[4] = system: 22Rv1 cells; format: cell-based, human; details: for a2 (pre-exponential factor, normalized fluorescence plateau) / b2: same single cell
Description: We previously reported that a mono-exponential drug uptake model could be applied to fit the experimental data in order to compare drug accumulation kinetics in MDR cells.^45 The following equation was used to describe the time-dependent change of single-cell DNR accumulation:
where x is time; y is the normalized fluorescence signal obtained by dividing the intracellular concentrations by the extracellular DNR concentrations; a is the y-axis value that will reach when the time x is sufficiently large (this value is called pre-exponential factor that is related to the cell permeability coefficient p of drug uptake and the pump rate k for drug efflux); b, which is the half time when y reaches 50% of a, is given by
The curve fitting analysis was performed on the normalized fluorescence using the SAS software. […] Because of the initially large drug concentration gradient across the cell membrane, the initial cellular accumulation rate of drugs is very fast,^65 and this fast rate is shown as a short half time of ˜106 s in FIG. 13a. When the concentration gradient became smaller, the drug uptake rate became slower; ultimately, the signal reached a plateau as the drug uptake rate was close to the drug efflux rate. In the presence of FTC, drug accumulation increased (FIG. 13b). This significant drug enhancement is believed to be caused by the action of FTC on the ABCG2 drug efflux pump.
In a similar manner, an experiment was conducted by treating a 22Rv1 cell by 3 μM of OG-PTX, followed by OG-PTX-loaded FTC40 of μM, as shown in FIGS. 13c and 13d.

[5] = system: 22Rv1 cells; experiment: On-chip drug accumulation measurement (fluorescence) of anti-cancer drug alone in a single 22Rv1 cell; format: cell-based, human; details: for corrected signal of DNR (Fi) / corrected signal of OG-PTX: single 22Rv1 cell; for corrected signal of DNR (Fi): FIG. 8a; for corrected signal of OG-PTX: FIG. 8b
Description: After the cell was kept stationary, the medium was introduced into Reservoir D to induce a liquid flow to make sure the cell was stationary before running the drug accumulation experiment. An optical detection system was employed for simultaneous fluorescence measurement and bright-field imaging.^47,58
as §1
Drug accumulation was conducted in Chamber 2. In the first step, accumulation of the anti-cancer drug (i.e., DNR or OG-PTX) in the MDR single cell was measured in the absence of MDR inhibitor (FIG. 7a). The 22Rv1 cells naturally express the ABCG2 transporter, which actively transports drug molecules out of the cell.^50 As DNR is a well-known ABCG2 substrate,^51 the initial accumulation of DNR without the influence of any MDR inhibitor was low. […] When the cell was inside the window, the total fluorescent intensity (Ft) was measured; whereas the background (Fb) was measured when the cell was outside the window.^58, 59 Subtraction of the background (Fb) from the total fluorescent intensity (Ft) gave a corrected signal (Fi) representing the drug concentration inside the single prostate cancer cell.^45, 59
The experiment was continued using DNR at different concentrations (3.5, 7, 14, 35, 70, 350 μM) in order to determine the reasonable initial signal of drug accumulation in the cell. […] The signal obtained from DNR at 35 μM provided the optimal initial value. Similarly, other experiments were conducted on a single 22Rv1 cell by treating the cell with OG-PTX at different concentrations (0.3, 1.5, 3, 6, 30 μM). […] Therefore, the optimal fluorescence signal was obtained after treating the single cell with 3 μM of OG-PTX. After the optimization experiment for drug concentration, subsequent experiments were carried out with 35 μM of DNR or 3 μM of OG-PTX. […] A similar experiment was conducted on another single 22Rv1 cell by adding 3 μM of OG-PTX, indicating saturation in the fluorescent intensity (FIG. 8d).

[6] = system: WBC; experiment: Trypan blue treatment of WBC; format: cell-based, mouse; details: after high DNR accumulation, FIG. 12 f3
[7] = system: 22Rv1 cells; format: cell-based, human
Procedure: as §1
As shown in FIG. 11a (solid line), the fluorescence signal of the DNR was 630±77. After adding different concentrations of FTC, the signals were enhanced. Similar experiments were performed by adding different concentrations of OG-PTX (FIG. 11a: dashed line). Therefore, the optimal fluorescence signals were obtained after treating the single cells with both anti-cancer drugs in the presence of 40 μM of FTC.
Obvious enhancement in fluorescent intensity (at 585 nm) was observed (i.e., 2.8±0.3, 4.4±0.5, 4.9±0.5 fold-increase (p<0.0001). After washing the cell, anti-P-gp was applied. The fluorescence signal (524 nm) increased from 265±70 to 615±72 cps, confirming that the PCa cell was cancerous.
One of the key requirements for the effectiveness of chemotherapy is the sufficient delivery of chemotherapeutic drug into the cancer cell.^66-69 As mentioned, drug resistance due to MDR activity is due to the function of ABC transporters that reduce intracellular drug accumulation. […] Similar results were obtained after applying OG-PTX in the presence of same MDR inhibitors (FIG. 15a: black solid line & FIG. 15b: gray solid line) (3.0±0.2, 3.1±0.2, 3.1±0.2, and 2.9±0.2, 2.9±0.2, 3.0±0.2 of fold-increase, respectively). […] On the other hand, after accumulation of DNR in the presence of MDR inhibitors, DNR was more effectively retained in MDR cells following removal of MDR inhibitors, particularly FTC from single MDR-treated cell (FIG. 14b: black dashed line).

[8] = system: 22Rv1 cells; details: 22Rv1 cells treated by FTC (25 μM); cited from earlier work
[9] = system: leukemia cells; details: simultaneous administration of verapamil & CsA and MK-571; cited from earlier work
[10] = Step 2: 3 μM OG-PTX + 40 μM FTC

COc1cccc2c1C(=O)c1c(O)c3c(c(O)c1C2=O)C[C@@](O)(C(C)=O)C[C@@H]3O[C@H]1C[C@H](N)[C@H](O)[C@H](C)O1 [DNR, Daunorubicin]
cell viability by trypan blue ([1]; single 22Rv1 cell after 35 μM DNR, DEP capture and xenon lamp excitation, FIG. 9c): viable | trypan blue staining (cell membrane integrity) ([1]; single 22Rv1 cells after 35 μM DNR or 3 μM OG-PTX in the presence of 40 μM FTC, FIG. 13): no cell staining | DNR accumulation behaviour in WBC [2]: continued to rise; also recorded: continuous increase in drug accumulation | fold-increase in fluorescent intensity (at 585 nm), DNR accumulation ([3]; single 22Rv1 cell isolated from WBCs, successive MDR inhibitor treatments not given, FIG. 12a): 3.3±0.3 fold and 4.5±0.5 fold and 5.4±0.5 fold | half time to reach the plateau ([4]; 35 μM DNR only, FIG. 13a): ~106 s | a1 (pre-exponential factor, normalized fluorescence plateau) ([4]; Step 1: 35 μM DNR only): 1.0±0.3 | b1 ([4]; Step 1: 35 μM DNR only): 0.010 ± 0.003 s⁻¹ | corrected signal of DNR (Fi) ([5]; 3.5 μM DNR): 100±37 cps | corrected signal of DNR (Fi) ([5]; 7 μM DNR): 290±39 cps | corrected signal of DNR (Fi) ([5]; 14 μM DNR): 260±41 cps | fold-increase in DNR accumulation ([5]; 35 μM DNR alone for 4000 s (negative control), three successive values, FIG. 14a dotted line): 1.1±0.1 fold and 1.2±0.1 fold | fold-increase in fluorescence ([5]; 35 μM DNR only (negative control), FIG. 9a bottom curve): 1.3±0.2 fold and 1.3 fold | corrected signal of DNR (Fi) ([5]; 35 μM DNR): 535±92 cps and 530±42 cps | corrected signal of DNR (Fi) ([5]; 70 μM DNR): 550±47 cps | corrected signal of DNR (Fi) ([5]; 350 μM DNR): 1280±50 cps | fluorescence signal of the DNR ([5]; before adding FTC, FIG. 11a solid line): 630±77 | trypan blue staining of WBC [6]: staining by trypan blue

COc1ccc2c3c([nH]c2c1)[C@H](C=C(C)C)N1C(=O)[C@@H]2CCCN2C(=O)[C@@H]1C3 [FTC, fumitremorgin C]
fold-increase for OG-PTX accumulation, based on curve fitting ([7]; 3 μM OG-PTX + 40 μM FTC, FIG. 13): 2.4±0.4 fold | fold-increase in OG-PTX accumulation ([7]; 3 μM OG-PTX + 40 μM FTC, three successive values, FIG. 15a solid line): 3.0±0.2 fold and 3.1±0.2 fold | fold-increase in OG-PTX accumulation after removing inhibitor ([7]; 3 μM OG-PTX, FTC removed, three successive values, FIG. 15a dashed line): 2.7±0.2 fold and 1.65±0.2 fold and 1.4±0.2 fold | fold-increase in OG-PTX accumulation, average of 6 individual cell experiments ([7]; FTC, followed by CsA, then FTC+CsA on the same cell, FIG. 15c): 2.7±0.3 fold | fold accumulation of D-luciferin [8]: 2.0 fold | fold-increase for DNR accumulation, based on curve fitting ([3]; 35 μM DNR + 40 μM FTC, FIG. 13): 3.4±0.2 fold | fold-increase in DNR accumulation ([3]; 35 μM DNR + 40 μM FTC, after 1000 s of adding inhibitor, three successive values, FIG. 14a solid line): ~3.7±0.2 fold and ~3.8±0.2 fold | fold-increase in DNR accumulation after removing inhibitor ([3]; 35 μM DNR, FTC removed after 2000 s, three successive values, FIG. 14a dashed line): 3.8±0.2 fold and 3.2±0.2 fold and 2.7±0.2 fold | fold-increase in DNR accumulation signal ([3]; 35 μM DNR, after adding 40 μM FTC, FIG. 9a top curve): 3.5±0.3 fold | fold-increase in DNR accumulation, average of 6 individual cell experiments ([3]; FTC, followed by CsA, then FTC+CsA on the same cell, FIG. 14c): 3.7±0.4 fold | MDR inhibitor concentration giving the optimal fluorescence signal ([3]; single 22Rv1 cell, DNR and OG-PTX accumulation, FIG. 11): 40 µM | half-time to reach plateau ([4]; 3 μM OG-PTX + 40 μM FTC, FIG. 13d): 24 s | half time to reach the plateau ([4]; 35 μM DNR + 40 μM FTC, FIG. 13b): 346 s | a2 (pre-exponential factor, normalized fluorescence plateau) [4, 10]: 2.4±0.4 | b2 [4, 10]: 0.003 ± 0.008 s⁻¹ | a2 (pre-exponential factor, normalized fluorescence plateau) ([4]; Step 2: 35 μM DNR + 40 μM FTC): 3.4±0.2 | b2 ([4]; Step 2: 35 μM DNR + 40 μM FTC): 0.004 ± 0.002 s⁻¹

CN(C)C(=O)CCSC(SCCC(=O)O)c1cccc(/C=C/c2ccc3ccc(Cl)cc3n2)c1 (stereo not shown) [MK-571]
intracellular levels of [3H]-azacytidine [9]: increase

COc1ccc(CCN(C)CCCC(C#N)(c2ccc(OC)c(OC)c2)C(C)C)cc1OC (stereo not shown) [verapamil]
intracellular levels of [3H]-azacytidine [9]: increase

Oregon Green® 488-conjugated paclitaxel [OG-PTX]
fold-increase in fluorescent intensity (at 585 nm), OG-PTX accumulation ([7]; single 22Rv1 cell isolated from WBCs, successive MDR inhibitor treatments not given, FIG. 12b): 2.8±0.3 fold and 4.4±0.5 fold and 4.9±0.5 fold | half-time to reach plateau ([4]; 3 μM OG-PTX only, FIG. 13c): 98 s | a1 (pre-exponential factor, normalized fluorescence plateau) ([4]; Step 1: 3 μM OG-PTX only): 1.0±0.1 | b1 ([4]; Step 1: 3 μM OG-PTX only): 0.007 ± 0.006 s⁻¹ | corrected signal of OG-PTX ([5]; 0.3 μM OG-PTX): 60±48 cps | corrected signal of OG-PTX ([5]; 1.5 μM OG-PTX): 100±52 cps | fold-increase in OG-PTX accumulation ([5]; 3 μM OG-PTX alone for 4000 s (negative control), three successive values, FIG. 15a dotted line): 1.1±0.1 fold and 1.2±0.1 fold | corrected signal of OG-PTX ([5]; 3 μM OG-PTX): 510±88 cps and 500±55 cps | corrected signal of OG-PTX ([5]; 6 μM OG-PTX): 1300±56 cps | corrected signal of OG-PTX ([5]; 30 μM OG-PTX): 2900±72 cps
